{
  "source": "ChEMBL document CHEMBL1132496",
  "about": "“Combining in vitro and in vivo pharmacokinetic data for prediction of hepatic drug clearance in humans by artificial neural networks and multivariate statistical techniques” (J Med Chem, 1999)",
  "key": {"Rattus norvegicus": {"species_on_record": "Rattus norvegicus", "conditions": "hepatocytes", "description": "In vitro clearance in rat in 1000000 cells"}, "in vivo [1]": {"assay": "in vivo", "conditions": "dog"}, "clinical [2]": {"assay": "clinical", "conditions": "human, in vivo", "description": "In vivo clearance in human"}, "Homo sapiens": {"species_on_record": "Homo sapiens", "conditions": "hepatocytes", "description": "In vitro clearance in human in 1000000 cells"}, "in vivo [3]": {"assay": "in vivo", "conditions": "rat"}, "Canis familiaris": {"species_on_record": "Canis familiaris", "conditions": "dog, hepatocytes", "description": "In vitro clearance in dog in 1000000 cells"}, "in vivo [4]": {"assay": "in vivo", "conditions": "dog", "remark": "listed apart in the source", "description": "In vivo clearance in dog."}, "in vivo [5]": {"assay": "in vivo", "conditions": "rat", "remark": "listed apart in the source", "description": "In vivo clearance in rat."}, "clinical [6]": {"assay": "clinical", "conditions": "human, in vivo", "remark": "listed apart in the source", "description": "In vivo clearance in human."}},
  "data": [
    {"compound": "CC(C)(C)S(=O)(=O)C[C@@H](Cc1ccccc1)C(=O)N[C@@H](Cc1cnc[nH]1)C(=O)N[C@@H](CC1CCCCC1)[C@@H](O)[C@@H](O)C1CC1", "values": [
      {"measurement": "clearance", "setting": "Rattus norvegicus", "value": 16.6, "unit": "µL/min"},
      {"measurement": "clearance", "setting": "in vivo [1]", "value": 3, "unit": "mL/min/kg"},
      {"measurement": "clearance", "setting": "clinical [2]", "value": 19.6, "unit": "mL/min/kg"},
      {"measurement": "clearance", "setting": "Homo sapiens", "value": 19.5, "unit": "µL/min"},
      {"measurement": "clearance", "setting": "in vivo [3]", "value": 119, "unit": "mL/min/kg"}
    ]},
    {"compound": "Cc1cc(=O)n(-c2ccccc2)n1C", "note": "[ANTIPYRINE]", "values": [
      {"measurement": "clearance", "setting": "Canis familiaris", "value": 1, "unit": "µL/min"},
      {"measurement": "clearance", "setting": "Rattus norvegicus", "value": 0.4, "unit": "µL/min"},
      {"measurement": "clearance", "setting": "in vivo [1]", "value": 4.9, "unit": "mL/min/kg"},
      {"measurement": "clearance", "setting": "clinical [2]", "value": 0.5, "unit": "mL/min/kg"},
      {"measurement": "clearance", "setting": "Homo sapiens", "value": 0.1, "unit": "µL/min"},
      {"measurement": "clearance", "setting": "in vivo [3]", "value": 7, "unit": "mL/min/kg"}
    ]},
    {"compound": "COc1ccccc1Oc1c(NS(=O)(=O)c2ccc(C(C)(C)C)cc2)nc(-c2ncccn2)nc1OCCO", "note": "[BOSENTAN]", "values": [
      {"measurement": "clearance", "setting": "Canis familiaris", "value": 0.2, "unit": "µL/min"},
      {"measurement": "clearance", "setting": "Rattus norvegicus", "value": 1.3, "unit": "µL/min"},
      {"measurement": "clearance", "setting": "in vivo [4]", "value": 1.9, "unit": "mL/min/kg"},
      {"measurement": "clearance", "setting": "in vivo [5]", "value": 55, "unit": "mL/min/kg"},
      {"measurement": "clearance", "setting": "Homo sapiens", "value": 0.2, "unit": "µL/min"},
      {"measurement": "clearance", "setting": "clinical [6]", "value": 3.7, "unit": "mL/min/kg"}
    ]},
    {"compound": "Cn1c(=O)c2c(ncn2C)n(C)c1=O", "note": "[CAFFEINE]", "values": [
      {"measurement": "clearance", "setting": "Canis familiaris", "value": 0.2, "unit": "µL/min"},
      {"measurement": "clearance", "setting": "Rattus norvegicus", "value": 0.6, "unit": "µL/min"},
      {"measurement": "clearance", "setting": "in vivo [1]", "value": 2.6, "unit": "mL/min/kg"},
      {"measurement": "clearance", "setting": "clinical [2]", "value": 2, "unit": "mL/min/kg"},
      {"measurement": "clearance", "setting": "Homo sapiens", "value": 0.1, "unit": "µL/min"},
      {"measurement": "clearance", "setting": "in vivo [3]", "value": 13, "unit": "mL/min/kg"}
    ]},
    {"compound": "COc1ccc([C@@H]2Sc3ccccc3N(CCN(C)C)C(=O)[C@@H]2OC(C)=O)cc1", "note": "[DILTIAZEM]", "values": [
      {"measurement": "clearance", "setting": "Canis familiaris", "value": 2.7, "unit": "µL/min"},
      {"measurement": "clearance", "setting": "Rattus norvegicus", "value": 43.6, "unit": "µL/min"},
      {"measurement": "clearance", "setting": "in vivo [4]", "value": 46.1, "unit": "mL/min/kg"},
      {"measurement": "clearance", "setting": "in vivo [5]", "value": 87.2, "unit": "mL/min/kg"},
      {"measurement": "clearance", "setting": "Homo sapiens", "value": 1.9, "unit": "µL/min"}
    ]},
    {"compound": "O=C1Nc2ccc(Cl)cc2C(c2ccccc2Cl)=NC1O", "note": "(stereo not given) [LORAZEPAM]", "values": [
      {"measurement": "clearance", "setting": "Canis familiaris", "value": 18.1, "unit": "µL/min"},
      {"measurement": "clearance", "setting": "Rattus norvegicus", "value": 3.8, "unit": "µL/min"},
      {"measurement": "clearance", "setting": "in vivo [1]", "value": 26.1, "unit": "mL/min/kg"},
      {"measurement": "clearance", "setting": "clinical [2]", "value": 1.1, "unit": "mL/min/kg"},
      {"measurement": "clearance", "setting": "Homo sapiens", "value": 0.3, "unit": "µL/min"},
      {"measurement": "clearance", "setting": "in vivo [3]", "value": 27.2, "unit": "mL/min/kg"}
    ]},
    {"compound": "COCC(=O)O[C@]1(CCN(C)CCCc2nc3ccccc3[nH]2)CCc2cc(F)ccc2[C@@H]1C(C)C", "note": "[MIBEFRADIL]", "values": [
      {"measurement": "clearance", "setting": "Canis familiaris", "value": 6.2, "unit": "µL/min"},
      {"measurement": "clearance", "setting": "Rattus norvegicus", "value": 5.4, "unit": "µL/min"},
      {"measurement": "clearance", "setting": "in vivo [4]", "value": 36, "unit": "mL/min/kg"},
      {"measurement": "clearance", "setting": "in vivo [5]", "value": 94, "unit": "mL/min/kg"},
      {"measurement": "clearance", "setting": "Homo sapiens", "value": 0.9, "unit": "µL/min"},
      {"measurement": "clearance", "setting": "clinical [6]", "value": 7, "unit": "mL/min/kg"}
    ]},
    {"compound": "Cc1ncc2n1-c1ccc(Cl)cc1C(c1ccccc1F)=NC2", "note": "[MIDAZOLAM]", "values": [
      {"measurement": "clearance", "setting": "Rattus norvegicus", "value": 16.7, "unit": "µL/min"},
      {"measurement": "clearance", "setting": "in vivo [5]", "value": 130, "unit": "mL/min/kg"},
      {"measurement": "clearance", "setting": "Homo sapiens", "value": 4.5, "unit": "µL/min"},
      {"measurement": "clearance", "setting": "clinical [6]", "value": 11, "unit": "mL/min/kg"}
    ]},
    {"compound": "C/C(=C\\c1ccc(OCCN2CCOCC2)cc1)c1ccc2c(c1)C(C)(C)CCC2(C)C", "note": "[MOFAROTENE]", "values": [
      {"measurement": "clearance", "setting": "Canis familiaris", "value": 1, "unit": "µL/min"},
      {"measurement": "clearance", "setting": "Rattus norvegicus", "value": 2.3, "unit": "µL/min"},
      {"measurement": "clearance", "setting": "in vivo [4]", "value": 5.8, "unit": "mL/min/kg"},
      {"measurement": "clearance", "setting": "in vivo [5]", "value": 16, "unit": "mL/min/kg"},
      {"measurement": "clearance", "setting": "Homo sapiens", "value": 2, "unit": "µL/min"},
      {"measurement": "clearance", "setting": "clinical [6]", "value": 11, "unit": "mL/min/kg"}
    ]},
    {"compound": "C=CCN1CC[C@]23c4c5ccc(O)c4O[C@H]2C(=O)CC[C@@]3(O)[C@H]1C5", "note": "[NALOXONE]", "values": [
      {"measurement": "clearance", "setting": "Canis familiaris", "value": 32.1, "unit": "µL/min"},
      {"measurement": "clearance", "setting": "Rattus norvegicus", "value": 54.6, "unit": "µL/min"},
      {"measurement": "clearance", "setting": "in vivo [1]", "value": 42.5, "unit": "mL/min/kg"},
      {"measurement": "clearance", "setting": "clinical [2]", "value": 25, "unit": "mL/min/kg"},
      {"measurement": "clearance", "setting": "Homo sapiens", "value": 16.7, "unit": "µL/min"},
      {"measurement": "clearance", "setting": "in vivo [3]", "value": 48.8, "unit": "mL/min/kg"}
    ]},
    {"compound": "COC(=O)C1=C(C#N)NC(C)=C(C(=O)OC(C)C)C1c1cccc([N+](=O)[O-])c1", "note": "(stereo not given) [NILVADIPINE]", "values": [
      {"measurement": "clearance", "setting": "Canis familiaris", "value": 10.9, "unit": "µL/min"},
      {"measurement": "clearance", "setting": "Rattus norvegicus", "value": 29.7, "unit": "µL/min"},
      {"measurement": "clearance", "setting": "in vivo [1]", "value": 15.3, "unit": "mL/min/kg"},
      {"measurement": "clearance", "setting": "clinical [2]", "value": 20, "unit": "mL/min/kg"},
      {"measurement": "clearance", "setting": "Homo sapiens", "value": 13.3, "unit": "µL/min"},
      {"measurement": "clearance", "setting": "in vivo [3]", "value": 94, "unit": "mL/min/kg"}
    ]},
    {"compound": "CCOC(=O)C1=C(C)NC(C)=C(C(=O)OC)C1c1cccc([N+](=O)[O-])c1", "note": "(stereo not given) [NITRENDIPINE]", "values": [
      {"measurement": "clearance", "setting": "Canis familiaris", "value": 8.1, "unit": "µL/min"},
      {"measurement": "clearance", "setting": "Rattus norvegicus", "value": 24, "unit": "µL/min"},
      {"measurement": "clearance", "setting": "in vivo [1]", "value": 21.7, "unit": "mL/min/kg"},
      {"measurement": "clearance", "setting": "clinical [2]", "value": 18.7, "unit": "mL/min/kg"},
      {"measurement": "clearance", "setting": "Homo sapiens", "value": 12, "unit": "µL/min"},
      {"measurement": "clearance", "setting": "in vivo [3]", "value": 16.5, "unit": "mL/min/kg"}
    ]},
    {"compound": "Cn1c(=O)c2[nH]cnc2n(C)c1=O.O", "note": "[THEOPHYLLINE]", "values": [
      {"measurement": "clearance", "setting": "Canis familiaris", "value": 0.2, "unit": "µL/min"},
      {"measurement": "clearance", "setting": "Rattus norvegicus", "value": 0.2, "unit": "µL/min"},
      {"measurement": "clearance", "setting": "in vivo [1]", "value": 1.5, "unit": "mL/min/kg"},
      {"measurement": "clearance", "setting": "clinical [2]", "value": 0.6, "unit": "mL/min/kg"},
      {"measurement": "clearance", "setting": "Homo sapiens", "value": 0.1, "unit": "µL/min"},
      {"measurement": "clearance", "setting": "in vivo [3]", "value": 2.2, "unit": "mL/min/kg"}
    ]},
    {"compound": "Cc1ccc(C(=O)c2cc(O)c(O)c([N+](=O)[O-])c2)cc1", "note": "[TOLCAPONE]", "values": [
      {"measurement": "clearance", "setting": "Canis familiaris", "value": 1.4, "unit": "µL/min"},
      {"measurement": "clearance", "setting": "Rattus norvegicus", "value": 2.6, "unit": "µL/min"},
      {"measurement": "clearance", "setting": "in vivo [1]", "value": 3.3, "unit": "mL/min/kg"},
      {"measurement": "clearance", "setting": "clinical [2]", "value": 2.7, "unit": "mL/min/kg"},
      {"measurement": "clearance", "setting": "Homo sapiens", "value": 1.2, "unit": "µL/min"},
      {"measurement": "clearance", "setting": "in vivo [3]", "value": 15, "unit": "mL/min/kg"}
    ]}
  ]
}
